Results taken from patent US6534080B2, “Method for administering camptothecins via injection of pharmaceutical composition comprising coated particles of a camptothecin” (priority 2001, dated 2003).

Legend:
[1] = tested on: A375 human melanoma xenografts; assay: A375 human melanoma xenograft study 1 (tumor growth delay, toxicity); settings: for share of mice with CR responses: q3d×4
Source text: The following study evaluates two intravenous formulations according to the present invention against human tumor xenografts in athymic nude mice. The study used the A375 human melanoma xenograft model to compare the in vivo antitumor efficacy of I.V. 9-nitro-camptothecin, in vehicles containing IDD-P which provides a particulate suspension of 9-nitro-camptothecin, and IDD-D which provides a droplet suspension of 9-nitro-camptothecin, to the efficacy of oral 9-nitro-camptothecin and intraperitoneal CAMPTOSAR®, HYCAMTIN®, and DTIC®.
In order to assess antitumor efficacy, groups of athymic nude mice (n=10) bearing ˜72-mg A375 melanomas were treated intravenously on the 5/2/5 schedule with 9-nitro-camptothecin in IDD-P at 3.0 mg/kg or 1.5 mg/kg and 9-nitro-camptothecin in IDD-D at 2.0 mg/kg or 1.0 mg/kg.
Husbandry: Female nude mice were 16 weeks of age (NCR-nufBr; Taconic Farms) for the A375 study. The mice were fed ad libitum water (reverse osmosis, 1 ppm Cl) and autoclaved Prolab NIH-31 M/5% Rodent Diet consisting of 18% protein, 5% fat, 6% fiber, and 8% ash. Mice were housed in static microisolators on a 12-hour light cycle at 21-22° C. (70-72° F.) and 40%-60% humidity.
Tumor Implantation: An A375 melanoma fragment (1 mm 3 ) was implanted subcutaneously in the flank of each nude mouse. When the tumors reached the 60-112 mg size range, the mice were sorted into treatment groups (on Day 1) such that the group mean tumor sizes ranged from 71.3 mg-72.5 mg. Estimated tumor weight was calculated using the formula: [formula]
Drug Formulations: IDD-P with a mean particle size of 0.07-0.06 mm and IDD-D with a mean particle size of 0.15 mm were prepared for the study by RTP Pharma Inc. For this, the 9-nitro-camptothecin suspensions were diluted with water and vehicle to provide doses of 3 mg/kg and 1.5 mg/kg in 33% IDD-P, and doses of 2 mg/kg and 1 mg/kg in 100% and 50% IDD-D, respectively. After dilution, 9-nitro-camptothecin suspensions were mixed thoroughly by gentle agitation and stored at 2-8° C. For its oral formulation, 9-nitro-camptothecin was dissolved in DMA (N,N-dimethylacetamide, SIGMA) and diluted with D5W to yield a final DMA concentration of 3%. CAMPTOSAR®, DTIC®, and HYCAMTIN® were obtained as the marketed drugs and solutions were prepared fresh on the day of dosing. CAMPTOSAR® (irinotecan, Pharmacia & Upjohn Company, 20 mg/ml) and DTIC® (dacarbazine, Bayer Corporation, 20 mg/ml) were diluted with D5W. HYCAMTIN® (topotecan, SmithKlein Beecham) was reconstituted with water at 1 mg/ml.
Treatments: Volumes of 0.20 ml per 20-g mouse, body-weight adjusted, were administered once daily. Tumor-bearing athymic nude mice were matched on Day 1 into 13 groups of ten animals and drug administration was initiated. The I.V. formulations of 9-nitro-camptothecin were given once daily on a 5/2/5 schedule as shown in the protocol summary shown in FIG. 4. Oral 9-nitro-camptothecin doses were given on a q3d×4 schedule (Days 1, 4, 8, and 11). Three reference drugs were administered I.P.: CAMPTOSAR® was given in three doses at weekly intervals (qwk×3); HYCAMTIN® was given in four doses at four-day intervals (q4d×4); and DTIC® was given in five consecutive daily doses (qd×5). The tumor growth control group for these reference treatments received no treatment (Group 1). The 9-nitro-camptothecin vehicle: 33.3% IDD-P, 100% IDD-D, and 3% DMA, was administered to vehicle control Groups 2-4, respectively.
Tumor Growth Endpoint: The tumor growth delay (TGD) method was used to assess efficacy. Tumor dimensions were measured twice weekly until the experiment was terminated on Day 62.

[2] = whole blood; cited from earlier work
[3] = human plasma, pH 7.4, 37° C.; cited from earlier work
[4] = molecular target: human serum albumin (HSA) (Homo sapiens, UniProt P02768); settings: PBS at pH 7.4; cited from earlier work
[5] = 2.0 mg/kg p.o., q3d×4, Group 13, Day 62
[6] = 4.0 mg/kg p.o., q3d×4, Group 12, Day 62

Chain of human serum albumin (HSA) (P02768 25-609): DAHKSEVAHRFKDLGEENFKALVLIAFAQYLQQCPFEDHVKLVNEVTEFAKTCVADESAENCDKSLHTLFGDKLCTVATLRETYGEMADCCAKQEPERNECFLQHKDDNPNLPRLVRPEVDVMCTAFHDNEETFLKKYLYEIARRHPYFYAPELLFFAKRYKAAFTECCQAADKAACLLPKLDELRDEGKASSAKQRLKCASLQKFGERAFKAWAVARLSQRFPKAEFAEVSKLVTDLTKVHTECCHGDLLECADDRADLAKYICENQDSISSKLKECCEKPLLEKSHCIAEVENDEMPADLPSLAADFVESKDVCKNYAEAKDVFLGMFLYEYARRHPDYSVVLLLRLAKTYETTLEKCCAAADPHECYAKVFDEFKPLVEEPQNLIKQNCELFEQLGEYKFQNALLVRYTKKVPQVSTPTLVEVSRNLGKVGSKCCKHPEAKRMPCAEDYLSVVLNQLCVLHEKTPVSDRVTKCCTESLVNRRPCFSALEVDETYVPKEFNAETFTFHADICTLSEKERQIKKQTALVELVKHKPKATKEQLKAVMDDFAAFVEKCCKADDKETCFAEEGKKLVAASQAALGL

CC[C@@]1(O)C(=O)OCc2c1cc1n(c2=O)Cc2cc3c([N+](=O)[O-])cccc3nc2-1 [9-nitro-camptothecin in 3% DMA, 9-nitro-20(S)-camptothecin]
share of mice with CR responses ([1]; 2 mg/kg p.o.): 40% | CR responses [1, 5]: 4 | PR responses (printed RP) [1, 5]: 1 | SD/PD responses [1, 5]: 2 | 62-day survivors ([1]; 2.0 mg/kg p.o., q3d×4, Group 13, n=10): seven | share of mice with CR responses ([1]; 4 mg/kg p.o.): 40% | CR responses [1, 6]: 4 | SD/PD responses [1, 6]: 3 | 62-day survivors ([1]; 4.0 mg/kg p.o., q3d×4, Group 12, n=10): seven

CCc1c2c(nc3ccc(OC(=O)N4CCC(N5CCCCC5)CC4)cc13)-c1cc3c(c(=O)n1C2)COC(=O)[C@]3(O)CC [CAMPTOSAR®, irinotecan]
CR responses ([1]; 100 mg/kg I.P., qwk×3, Group 5, Day 62): single and one

CN(C)/N=N/c1[nH]cnc1C(N)=O [DTIC®, dacarbazine]
toxic deaths ([1]; 150 mg/kg I.P., qd×5, Group 7, n=10): one and One

CC[C@@]1(O)C(=O)OCc2c1cc1n(c2=O)Cc2cc3c(CN(C)C)c(O)ccc3nc2-1 [HYCAMTIN®, topotecan]
CR responses ([1]; 10 mg/kg I.P., q4d×4, Group 6, Day 62): single and one

CC[C@@]1(O)C(=O)OCc2c1cc1n(c2=O)Cc2cc3ccccc3nc2-1 [camptothecin, 20(S)-camptothecin]
half-life of α-hydroxy lactone [2]: 22 min | half-life of α-hydroxy lactone ring opening [3]: 11 min

CC[C@@](O)(C(=O)O)c1cc2n(c(=O)c1CO)Cc1cc3ccccc3nc1-2 [carboxylate form of camptothecin]
affinity for HSA of carboxylate form relative to α-hydroxy lactone form [4]: 150 fold
